# Source: a melting point compilation (Tetko et al.; mined from patent text by program, amines drawn as free bases though some values may be those of a salt)
row,Compound,melting point
1,O=C(c1nn(-c2ccc(F)cc2F)c2c1C1CCC2C1)N1CCCc2ccccc21 (stereo not drawn),103 to 107 °C
2,O=C1Cc2cc(Cl)cc(C(=O)c3ccccc3)c2N1,186 to 187 °C
3,COc1ccc(CSc2nnc(-c3ccc4occc4c3)o2)cc1C(F)(F)F,135 to 136 °C
4,O=[S@@]1CCC(c2ccccc2)(c2ccccc2)[C@@H]2CNC[C@@H]21 (racemic),192 °C
5,CC(C)C[C@@H](OC(=O)c1cccnc1)C(=O)O,101 to 103 °C
6,Cc1ccc(OCc2ccccc2[N+](=O)[O-])c(C=O)c1,124 °C
7,CC(C)(C)c1cc(C(=O)NCCOC(=O)c2cc(C(C)(C)C)c(O)c(C(C)(C)C)c2)cc(C(C)(C)C)c1O,185 to 187 °C
8,C#Cc1cc(C)c(C2=C(O)C3(CCN(OC)CC3)N(C)C2=O)c(C)c1,258 to 260 °C
9,O=c1c2ccccc2sc2ccc(O)cc12,232 to 241 °C
10,O=C1CCCC2CN(C(Cc3ccccc3)=NCc3cccs3)CC12 (stereo not drawn),114 °C
11,O=c1[nH]nc2n1-c1ccc(N3CCCC3)nc1C(c1ccccc1Cl)=[N+]([O-])C2,200 °C
12,CCCCOc1c(OC)c(OC)cc(C)c1C(=O)c1c(Cl)cccc1Cl,70 °C
13,COc1ccc2cc(CCCCC(O)CCc3cccnc3)ccc2c1 (stereo not drawn),83 to 84 °C
14,C[C@H](NC(=O)C[C@@H](CC(=O)O)c1ccc(F)cc1)c1ccccc1,195 to 196 °C
15,O=P(c1ccccc1)(c1ccccc1)C(F)F,93 to 94 °C
16,N#Cc1cc2c3ccccc3n(Cc3ccccc3)c2s1,130 to 132 °C
17,CC(=NNC(=O)C1CCCCC1)c1ccncc1,195 °C
18,Cc1cccc(Nc2nc(-c3cn[nH]c3)c(F)s2)n1,204 °C
19,CN(CC1CCN(CC2COc3ccccc3O2)CC1)c1nc2ccccc2s1 (stereo not drawn),125 °C
20,CCOC(=O)C(C)=C(C)NC(=O)Nc1cc(C(=O)OC(C)C)c(Cl)cc1F,145 to 147 °C
21,[N-]=[N+]=Nc1nc(N=[N+]=[N-])c2ncn(COC(CO)CO)c2n1,174 to 180 °C
22,O=C1OC(c2ccccc2)(c2ccc(-c3ccccc3)cc2)C(O)=C1OCc1ccccc1 (stereo not drawn),190 to 195 °C
23,"CC(C)CN1C(=O)C(NC(=O)c2cc3ccccc3[nH]2)N=C(N2CCCCCC2)c2ccccc21 (single isomer, unassigned; (-))",240 to 241 °C
24,Cc1cc(-c2c3c(cc4ccc(O)cc24)-c2ccc(O)cc2CO3)ccc1F,185 to 188 °C
25,CCCc1ccc(C(=O)Nc2ccc3sc(C)nc3c2Cl)cc1,184 °C
26,CCOC(=O)c1cn(Cc2ccccc2)nc1NC(=O)N(C)C,125 to 126 °C
27,Cc1cccc(-n2nc(C(N)=O)nc2-c2ccccc2)c1,142 to 143 °C
28,COC(CNc1ccc(C(O)(C(F)(F)F)C(F)(F)F)cc1)OC,72 to 74 °C

row,Compound,melting point
1,CCC1(CC)c2cc(Br)ccc2-c2ccc(C=O)cc21,126 to 128 °C
2,COc1cccc2c1[nH]c(=O)n2C(=O)Oc1ccccc1,204 to 205 °C
3,C=CCOC(=O)c1ccc(OC(=O)c2ccc(OC)c(C34CC5CC(CC(C5)C3)C4)c2)c(C)c1,138 to 139 °C
4,O=C1CCC(c2ccc3[nH]c(-c4ccccc4Cl)cc3c2)=NN1,236 to 239 °C
5,CCC(=O)N=C(Nc1c(Cl)cccc1Cl)SC,165 to 170 °C
6,CCn1ncc2c1ncc1c(NC)nc3ncnn3c12,> 300 °C
7,O=C(O)c1cccc(-c2ccc3c(c2)C(Oc2ccc(Cl)cc2Cl)CC3)c1 (stereo not drawn),173 to 174 °C
8,Cc1ccc([N+](=O)[O-])c(C(O)=S)c1,165 to 169 °C
9,CCOC(=O)c1cnc2c(SC(=O)N(C)C)cccn2c1=O,133 to 134 °C
10,Nc1cc(-n2cncn2)ccc1[N+](=O)[O-],259 to 261 °C
11,O=C(NC1CCC(c2cc(Nc3cccc(C(F)(F)F)c3)n[nH]2)C1)C1CCCCC1 (stereo not drawn),163 °C
12,CCOC(=O)C1=C(C)N=C(NC)N(C(=O)OCC)C1c1cccc([N+](=O)[O-])c1 (stereo not drawn),112 to 114 °C
13,Cc1ccc(N2CCCN(c3ccnc4sc(C(N)=O)c(N)c34)CC2)cc1[N+](=O)[O-],114 to 117 °C
14,Cn1c2ccccc2c2cc(C(=O)O)sc21,179 to 180 °C
15,CO/N=C(\C)[C@H]1CC[C@H]2[C@@H]3CCC4=CC(=O)CC[C@]4(C)[C@H]3CC[C@]12C,180 to 182 °C
16,CC(C)N(CCN1C(=O)/C(=N/NC(=O)Nc2ccccc2)c2ccccc21)C(C)C,157 to 159 °C
17,Nc1nc(NCCN2CCOCC2)nc2nc(-c3ccco3)nn12,242 to 244 °C
18,CC(=O)c1ccc(S(=O)(=O)NCc2cccnc2)cc1,143 to 144 °C
19,N#CC1=C(N)CCN(C(=O)c2ccccc2)C1,178 to 181 °C
20,N#Cc1nn(-c2c(Cl)cc(C(F)(F)F)cc2Cl)cc1C1CC1,124 °C
21,CCCCCc1c(/C=C/C(=O)OC)sc2cc(OC)ccc12,49 to 50 °C
22,COc1c2oc(C)cc2cc2c(C)cc(=O)oc12,154 to 155 °C
23,CC(C)c1ccc(NC(=O)C2CCCc3c(OCc4ccccc4)cccc32)cc1 (stereo not drawn),170 °C
24,CNS(=O)(=O)c1ccccc1C,62 to 64 °C
25,N#Cc1ccc(OCC(F)(F)C(F)(F)C(F)(F)C(F)(F)COc2ccc([N+](=O)[O-])cc2[N+](=O)[O-])cc1,89 to 90.6 °C
26,CCCCC(=O)c1c(-c2ccc3c(Br)c(O)ccc3c2)oc2ccccc12,171 to 172 °C
27,O=c1nc(-c2cccc(S(=O)(=O)Cc3ccccc3)n2)sc2ccccc12,217 to 218 °C

# The next lines start with the values.
row,melting point,Compound
1,273 °C,N#Cc1cc2cccnc2nc1Cl
2,132 to 133 °C,COc1ccc(C(=O)Nc2ccccc2C(=O)c2ccccn2)cc1
3,243 to 244 °C,Cn1c2ccc(Br)cc2c2sccc(=O)c21
4,159 to 161 °C,Cc1ccc(NC(=O)c2cc(Cl)ccc2NCC2CCN(C3CCCCCC3)CC2)nc1
5,80.5 to 82 °C,CC(C)(C)C(=O)C(=[N+]=[N-])S(=O)(=O)C1CCCCC1
6,211 to 212 °C,COC(=O)C1OC(Oc2nc[nH]c2C(N)=O)C(OC(C)=O)C(OC(C)=O)C1OC(C)=O (stereo not drawn)
7,145 to 148 °C,CCc1cc(OCc2ccc(-c3ccccc3-c3nnn(C(c4ccccc4)(c4ccccc4)c4ccccc4)n3)cc2)c2nc(OC)ccc2n1
8,208 to 210 °C,CCCOc1ccc(-c2ccc3c(c2)C=C(C(=O)Nc2ccc(C(O)c4ccccn4)cc2)CCS3(=O)=O)cc1 (stereo not drawn)
9,172 to 173 °C,COc1c(Cl)ccc(-c2nc(N)c(Cl)c(C(=O)O)n2)c1F
10,52 to 54 °C,CC(C(=O)NCc1ccc(C(C)(C)C)cc1)c1ccc(NS(C)(=O)=O)c(F)c1 (stereo not drawn)
11,232 to 236 °C,O=C1COc2cc(NC(=O)C(=O)N3CCC(OCc4ccccc4)CC3)ccc2N1
12,190 °C,COc1ccc2ccc(=O)[nH]c2c1
13,81 to 83 °C,O=C1C[C@@H]2[C@@H](/C=C/[C@H](O)CCc3ccccc3)[C@H](OC(=O)c3ccc(-c4ccccc4)cc3)C[C@@H]2O1
14,136 to 138 °C,CCOC(=O)c1c(Cl)c2cc(Oc3ccc(C(F)(F)F)cc3)ccc2n1-c1ccc(OC(C)C)cc1
15,188 to 189 °C,O=C1NC(=O)C(c2cccc3ccccc23)O1 (stereo not drawn)
16,165 to 167 °C,CCc1cc2c(c(CC)n1)CCC(=O)N2Cc1ccc(-c2ccccc2-c2nnn(C(c3ccccc3)(c3ccccc3)c3ccccc3)n2)cc1
17,80 to 84 °C,O=C(c1cn(C(=O)c2ccc(Cl)cc2)c2ccccc12)C1CSC(c2cccnc2)N1 (stereo not drawn)
18,219 to 222 °C,Cc1c(C(=O)O)oc2c(C(C)(C)C)ccc(O)c12
19,114 to 115 °C,CCOC(=O)c1cn(Cc2ccc(OCc3coc(-c4ccccc4)n3)cc2)nc1-c1cccs1
20,172 to 173 °C,O=C(Nc1cccnn1)N1CCN(c2cncc(-c3ccc(F)cc3F)c2)CC1
21,146 to 147 °C,CCOCc1nc2c(N)nc3cccnc3c2n1CCCCN(OC)C(=O)NC(C)C
22,133 to 136 °C,CNc1nc2ccccc2cc1N

row,melting point,Compound
1,136 °C,CCOC(=O)C(C)Oc1ccc(Nc2cnc3cc(Cl)ccc3n2)cc1 (stereo not drawn)
2,50.5 to 51 °C,O=[N+]([O-])c1ccc(F)cc1OC1C=CCC1 (stereo not drawn)
3,134 °C,CCCCN1CCC(n2nc(-c3cc(Cl)cc4c3OCC4)oc2=O)CC1
4,116 to 117 °C,CCOC(=O)N1CCN(C(=O)/C=C/S(=O)(=O)c2ccccc2)CC1
5,246 to 248 °C,CCC(=O)NNc1ccnc2c(NC(=O)c3c(Cl)cccc3Cl)cccc12
6,59 to 62 °C,CC(C)(C)c1ccc(/C=C/C(=O)OCc2ccccc2)cc1
7,156 to 159 °C,N#Cc1cnn(-c2nc(F)c(C(F)(F)F)cc2Cl)c1N
8,227 to 229 °C,C=CC(=O)Nc1ccc2ncnc(Nc3ccc(OCc4ccccc4)cc3)c2c1
9,143 °C,CN1CCOC(C2=C(C#N)C(c3cccc4nonc34)c3c[nH]nc3N2)C1 (stereo not drawn)
10,186 to 187 °C,CCCC1(S(=O)(=O)CCCN2CCN(C)CC2)C(=O)N(S(=O)(=O)c2ccc3ccccc3c2)C2CCNC21 (stereo not drawn)
11,189 to 191 °C,C=Cc1cnc2c(NC(=O)c3c(Cl)cccc3Cl)cccc2c1Cn1ccnc1
12,170 to 172 °C,CC#CCOc1ccc(S(=O)(=O)N(C)C(C(=O)O)c2ccc(Cl)cc2)cc1 (stereo not drawn)
13,105 to 106 °C,CS(=O)(=O)Nc1cc([N+](=O)[O-])ccc1OC1CCCCC1
14,106 to 108 °C,COc1cccc(C(=O)CS(C)=O)c1N (stereo not drawn)
15,159 to 161 °C,Cc1cc(Oc2c(Cl)cc(C(F)(F)F)cc2Cl)nn1C(=O)OC(C)(C)C
16,303 to 304 °C,O=C1NC(=S)NC1=Cc1cc(O)c(O)c(Cl)c1
17,128 to 131 °C,O=S(=O)(N1CCCC1)N1CCN(c2ccnc(CO)n2)CC1
18,44.5 to 47.5 °C,COc1ccc(CCl)c(F)c1OC
19,260 °C,NC(=O)N1C(=O)C(C(=O)c2ccccc2)c2ncc(Cl)cc21 (stereo not drawn)
20,119 °C,CS(=O)(=O)c1ccc(C(=O)C2C(=O)CCCC2=O)c(Cl)c1C1=NOC2OCCC12 (stereo not drawn)
21,116 °C,COc1ccc(CC(=O)NCc2ccccc2-c2ccccc2C(=O)NCCc2cccnc2)cc1
